Laboratory results as given in PMC10254233, “Synthesis and In Vitro Biological Evaluation of p-Carborane-Based Di-tert-butylphenol Analogs” (Molecules, 2023).

Key:
Format in all cases: cell-based, human
HCT116 cells [1] = assay: Cell proliferation assay (CFSE staining); conditions: HCT116, IC50 dose, 72 h, compared to R-830
HCT116 cells [2] = assay: ROS/RNS generation, DHR 123 staining; conditions: HCT116, IC50 dose, 72 h
Text: (§1) Apostat staining confirmed that apoptosis was in correlation with the activation of caspases (Figure 3C). […] The […] production of reactive oxygen species explains the observed effects of the applied treatments, namely inhibition of proliferation and induction of apoptosis (Figure 3E). It is widely accepted that drug-mediated hyperproduction of reactive oxygen species that are not buffered by cellular anti-oxidative protection is responsible for cell death induction. […] The described feature is acquired during disease progression, and it is tightly connected with abnormal blood supply and a hypoxic microenvironment. Therefore, elimination of these molecules results in a rapid decrease in cell viability. […]
(§2) Finally, after 72 h incubation, cells were washed, tryp-sinized, and analyzed using flow cytometry (CyFlow® Space Partec using the PartecFloMax® software […]
(§3) (30 µM) and R-830-Cb (50 µM)). […] Finally, for covering the slides fluorescent mounting medium was used and slides were ana-lyzed with Zeiss AxioObserver Z1 inverted fluorescence microscope (Carl Zeiss AG, Oberkochen, Ger-many) at 400 x magnification.
(§4) 1.1.5. Evaluation of the role of detected autophagy
(§5) Concomitant treatment of R-830-Cb and autophagy inhibitors chloroquine and 3-MA was performed to determine the nature of detected autophagy. […] Cell viability was evaluated using CV assay after 72 h. […]

HCT116 cells [3] = assay: Acridine orange (AO) staining for autophagy; conditions: HCT116, IC50 dose, 72 h
Text: as §1
Non-adherent cells were removed two hours after seeding and treatment was applied. Cell viability was determined after 72 h using a crystal violet (CV) assay. […]
and R-830-Cb (50 μM) for 72 h. […] After 15 min incubation at room temperature (RT) protected from light the cells were resuspended in AnnV-binding buffer and analysed using flow cytom-etry. HCT116 cells were incubated with pan-caspase inhibitor Apostat for 30 min at 37 °C to determine whether detected apoptosis was mediated by caspase activation. […]

HCT116 cells [4] = assay: Co-treatment with autophagy inhibitors, CV assay; conditions: HCT116, 50 µM with 20 µM chloroquine or 1 mM 3-MA, 72 h
Text: This means that the cytotoxic activity of the tested drug is enhanced by the inhibition of autophagy.
(G) HCT116 cells were co-treated with R-830-Cb and 3-methyladenine (3-MA) or chloroquine and viability was estimated by crystal violet (CV) assay. * p < 0.05; *** p < 0.001 in comparison to relevant control.
1.1.3. Measurement of reactive oxygen and nitrogen species (ROS/RNS) generation Dihydrorhodamine 123 (DHR) staining was used for detection of production of ROS/RNS species.
as §2
1.1.4. PI staining on chamber slides […]
as §3, §4, §5
Finally, after 72 h incubation, cells were tripsynized, washed, resuspended in PBS, and analyzed by flow cytometry (CyFlow® Space Partec using the PartecFloMax® software (Munster, Germany)).

## 1-Hydroxy-12-(thiophen-2′-carbonyl)-1,12-dicarba-closo-dodecaborane(12) [Compound R-830-Cb]
HCT116 cells [1]
  cell division (CFSE): more severely affected
HCT116 cells [2]
  reactive oxygen species production: potent inhibition of ROS
HCT116 cells [3]
  autophagy (AO staining): intense autophagy
HCT116 cells [4]
  cell viability on co-treatment with chloroquine or 3-MA: suppression of the autophagy process caused a drug-induced decrease in cell viability
